Converted amounts (≈) assume the structure as drawn. Where a name gives a salt, the structure may show the parent alone.
Key:
[1] = pH of saturated solution or 1% suspension in water; format: physicochemical; conditions: In pH = 6.8 buffer
[2] = pH of saturated solution or 1% suspension in water; format: physicochemical; conditions: room temperature
Experimental: pH Value: The pH at room temperature of a saturated solution or 1% suspension of the drug substance in water was recorded.

[3] = Intrinsic dissolution rate, rotation disk method; format: physicochemical; conditions: for Intrinsic Dissolution Rate: 37° C., 200 r.p.m.
Experimental: Intrinsic Dissolution: […] […] Pellets of the other salts remained intact for at least several minutes enabling the determination of the intrinsic dissolution rate. Dissolution rate studies were performed using the rotation disk method ([…] Instrument). A single rotation speed of 200 r.p.m. was used to dissolve drug substance into a 500 mL vessel at 37° C. The solution was continuously pumped through a UV cell measurement and returned to the dissolution vessel.

[4] = Solution stability (HPLC); format: physicochemical; conditions: for stability characteristics, in words: both in solution and in the solid state; for Unstressed (% Area): unstressed baseline of the stability study
Experimental: (§1) All samples were prepared/diluted to a concentration of 0.2 mg/mL in methanol prior to analysis by HPLC. A freshly prepared sample of each salt was used as the reference standard for external standard calibration analysis.

Solid-state stability = format: physicochemical; conditions: for Bulk stability (XRPD): 1 week
Experimental: as §1

[5] = Stability of mixtures with excipients; format: physicochemical; conditions: for stability with all excipient mixtures tested, in words: after 2 weeks at 50° C./75% r.h.
Experimental: as §1

[6] = Solid samples held at 93% r.h. (XRPD, TGA); format: physicochemical; conditions: 93% r.h., 10 days
Experimental: (§2) An approximate solubility of the below-listed salts was determined in water and at pH 1 by suspending 5-15 mg of the salt in 1 mL of solvent. The samples were allowed to equilibrate at ambient temperature for at least 20 hours. The supernatant was filtered and used for the solubility determination, which was done gravimetrically, for the aqueous solubility, and by UV-VIS spectroscopy for pH 1. The solid residue was analyzed by XRPD. […] They were subsequently analyzed by XRPD and TGA, if the latter deemed necessary. Only irreversible or slowly reversible events can be detected.

[7] = Approximate solubility in water and at pH 1 (supplemental testing); format: physicochemical; conditions: for Form by XRPD of solid residue, Water: after equilibration in water > 20 hours
Experimental: as §2

[8] = Equilibration in solvents and buffers: form conversion
[9] = Solubility, 24-hour equilibration at room temperature; format: physicochemical; conditions: organic solvent or mixture, thermodynamic from solid
Experimental: Aqueous Solubility: A carefully weighted amount (20-50 mg) of sample is dissolved in 1 ml of solvent with 24-hour equilibration at room temperature. The solubility was determined either gravimetrically or by UV-VIS spectrometry. The pH of the clear solution was also measured. However, the difficulty of determining salt solubilities in water should be stressed, since upon dissolution dissociation to the free form is possible, which affects both the solubility and the pH. It's not unlikely that attempts to make solutions of a salt at a concentration well below the reported solubility of the salt to be unsuccessful (for a full discussion see: M. Pudipeddi, A. T. M. Serajuddin, D. J. W. Grant, and P. H. Stahl in “Handbook of Pharmaceutical Salts Properties Selection and Use” page 27 and references therein).

[10] = Water, free base pellet disintegrated, not true intrinsic rate
[11] = 2 mg/mL in 100 mM lactate buffer, pH 3.5
[12] = 2 mg/mL in methanol, 1 week at 50° C.
[13] = 2 mg/mL in water, 1 week at 50° C.
[14] = 2 mg/mL, 100 mM lactate buffer pH 3.5, 1 week at 50° C.
[15] = 2 mg/mL, 100 mM lactate buffer pH 3.5, 1 week at 50° C., external standard
[16] = 2% in 0.5% HPMC 4000, 1 day at RT
[17] = 2% in 0.5% Klucel HF, 1 day at RT
[18] = 2% in 0.8% Tween 80, 1 day at RT
[19] = 5% solution, 1 day at RT (diluted 1:100 in pH 6.8 buffer)
[20] = Bulk stability, 2 weeks, 50° C.
[21] = Bulk stability, 2 weeks, 50° C./20% water
[22] = Bulk stability, 2 weeks, 50° C./75% r.h.
[23] = Light study, 1200 kLux (300-800 nm)
[24] = Mixture 1: 50% PVP + 50% Crospovidone, 50° C./75% r.h., 2 weeks
[25] = Mixture 2: 50% Starch 1500 + 5% MCC 102, 50° C./75% r.h., 2 weeks
[26] = Mixture 3: 5% PVP + 5% Crospovidone + 10% Starch 1500 + 80% MCC 102, 50° C./75% r.h., 2 weeks
[27] = Mixture 4: 99% Lactose + 1% BHT/BHA, 50° C./75% r.h., 2 weeks
[28] = Mixture 5: 99% Mannitol + 1% BHT/BHA, 50° C./75% r.h., 2 weeks
[29] = Mixture 6: 50% Mannitol + 47% HPCLH21 + 1% BHT/BHA + 2% Magnesium Stearate, 50° C./75% r.h., 2 weeks
[30] = Mixture 7: 50% Cetyl Alcohol + 49% HPCLH21 + 1% Magnesium Stearate, 50° C./75% r.h., 2 weeks
[31] = Mixture 8: 100% PEG 3350, 50° C./75% r.h., 2 weeks

With “2:1 L-tartarate salt of N-hydroxy-3-[4-[[[2-(2-methyl-1H-indol-3-yl)ethyl]amino]methyl]phenyl]-2E-2-propenamide” the “pH of saturated solution” value [1] was 5.57, the “pH of saturated solution” value [2] was 6.07 and the “intrinsic dissolution (rate), in words” value [3] was “good”. The “Intrinsic Dissolution Rate” value ([3]; HCl 0.1N) was 1.16 mg min^−1 cm^−2, the “Intrinsic Dissolution Rate” value [3, 10] was 0.38 mg min^−1 cm^−2 and the “pH of initial mixture” value [4, 11] was 3.58. For the same compound, the “% DP (total degradation products)” value [4, 12] was 0.86 % area, the “CL (appearance)” value [4, 12] was “A↓” and the assay [4, 12] was “[100.5]”. The “pH of initial mixture” value ([4]; 2 mg/mL in water) was 6.82, the “% DP (total degradation products)” value [4, 13] was 1.21 % area and the “CL (appearance)” value [4, 13] was “A↓”. The assay [4, 13] was “[98.91]”, the “% DP (total degradation products)” value [4, 14] was 1.53 % area and the “CL (appearance)” value [4, 14] was “A↓*”. The assay [4, 15] was “[96.89]”, the “% DP (total degradation products)” value ([4]; 2% in 0.5% CMC, 1 day at RT) was 0.62 % area and the “CL (appearance)” value ([4]; 2% in 0.5% CMC, 1 day at RT) was “A↓↓”. The assay ([4]; 2% in 0.5% CMC, 1 day at RT) was “[79.98]”, the “% DP (total degradation products)” value [4, 16] was 0.54 % area and the assay [4, 16] was “[97.54]”. For the same compound, the “% DP (total degradation products)” value [4, 17] was 0.58 % area, the assay [4, 17] was “[96.39]” and the “% DP (total degradation products)” value [4, 18] was 0.54 % area. The assay [4, 18] was “[96.60]”, the “% DP (total degradation products)” value [4, 19] was 0.71 % area and the “CL (appearance)” value [4, 19] was “A↓”. The assay [4, 19] was “[98.39]”, the “stability characteristics, in words” value [4] was “very good stability” and the “Unstressed (% Area)” value [4] was 99.62% Area. For the same compound, the “Bulk stability (XRPD)” value (Solid-state stability; 80° C.) was “no change”, the “Bulk stability (XRPD)” value (Solid-state stability; 80° C./75% r.h.) was “no change” and the “% DP (total degradation products)” value (Solid-state stability; [20]) was 0.84 % area. The assay (Solid-state stability; [20]) was “[99.48]”, the “% DP (total degradation products)” value (Solid-state stability; [21]) was 1.61 % area and the assay (Solid-state stability; [21]) was “[97.07]”. The “% DP (total degradation products)” value (Solid-state stability; [22]) was 1.36 % area, the assay (Solid-state stability; [22]) was “[97.66]” and the “% DP (total degradation products)” value (Solid-state stability; [23]) was 0.82 % area. The assay (Solid-state stability; [23]) was “[100.4]”, the “% DP (total degradation products)” value [5, 24] was 1.2 % area and the “% DS (drug substance)” value [5, 24] was 98.8 % area. The “% DP (total degradation products)” value [5, 25] was 1.3 % area, the “% DS (drug substance)” value [5, 25] was 98.7 % area and the “% DP (total degradation products)” value [5, 26] was 1.3 % area. For the same compound, the “% DS (drug substance)” value [5, 26] was 98.7 % area, the “% DP (total degradation products)” value [5, 27] was 1.3 % area and the “% DS (drug substance)” value [5, 27] was 98.7 % area. The “% DP (total degradation products)” value [5, 28] was 1.3 % area, the “% DS (drug substance)” value [5, 28] was 98.7 % area and the “% DP (total degradation products)” value [5, 29] was 1.3 % area. The “% DS (drug substance)” value [5, 29] was 98.7 % area, the “% DP (total degradation products)” value [5, 30] was 1.3 % area and the “% DS (drug substance)” value [5, 30] was 98.7 % area. The “% DP (total degradation products)” value [5, 31] was 1.3 % area, the “% DS (drug substance)” value [5, 31] was 98.7 % area and the “% DP (total degradation products)” value ([5]; Standard, freshly prepared) was 0.6 % area. For the same compound, the “% DS (drug substance)” value ([5]; Standard, freshly prepared) was 99.4 % area and the “stability with all excipient mixtures tested, in words” value [5] was “very good stability”.
With “2:1 malate (hemi-malate) salt of N-hydroxy-3-[4-[[[2-(2-methyl-1H-indol-3-yl) ethyl]amino]methyl]phenyl]-2E-2-propenamide” the “Solid State (EQ 93% r.h.) Form by XRPD” value [6] was “No change”, the approximate aqueous solubility [7] was roughly 1400 µg/mL and the “S (approximate solubility), pH 1” value ([7]; EQ t > 20 hours, ambient temperature, UV-VIS) was 0.42 mg/mL. For the same compound, the “S (approximate solubility), Water” value ([7]; EQ t > 20 hours, ambient temperature, gravimetric) was 1380 µg/mL, the “Form by XRPD of solid residue, Water” value [7] was “No change” and the “Form by XRPD of solid residue, Water” value ([7]; listed as malate) was “No structural change”.
With Cc1[nH]c2ccccc2c1CCNCc1ccc(/C=C/C(=O)NO)cc1 [Form A of the mesylate salt] the conversion upon equilibration ([8]; 0.1 N HCl) was “to the hydrochloride salt”, the conversion upon equilibration ([8]; phosphate buffer (pH=6.8)) was “to the free base” and the conversion upon equilibration ([8]; water / aqueous solutions) was “converts to form B”.
With Cc1[nH]c2ccccc2c1CCNCc1ccc(/C=C/C(=O)NO)cc1 [Free base, N-hydroxy-3-[4-[[[2-(2-methyl-1H-indol-3-yl)ethyl]amino]methyl]phenyl]-2E-2-propenamide] the “pH of saturated solution” value [1] was 6.91, the “pH of saturated solution” value [2] was 8.7 and the solubility at 24 h ([9]; ethyl acetate, 25 °C) was 5600 µg/mL (≈ 16 mM). It also gave a solubility at 24 h ([9]; Acetone, approx. at 25° C.) of 6500 µg/mL (≈ 18.6 mM), a solubility at 24 h ([9]; Ethanol, approx. at 25° C.) of 1500 µg/mL (≈ 4.29 mM) and a solubility at 24 h ([9]; Methanol, approx. at 25° C.) of 2300 µg/mL (≈ 6.58 mM). The “Intrinsic Dissolution Rate” value [3, 10] was 0.15 mg min^−1 cm^−2, the “pH of initial mixture” value [4, 11] was 3.60 and the assay [4, 12] was “[100.2]”. For the same compound, the “pH of initial mixture” value ([4]; 2 mg/mL in water) was 9.59, the “CL (appearance)” value [4, 13] was “A↓” and the assay [4, 13] was “[98.73]”. The assay [4, 15] was “[97.21]”, the assay ([4]; 2% in 0.5% CMC, 1 day at RT) was “[98.07]” and the assay [4, 16] was “[100.4]”. For the same compound, the assay [4, 17] was “[99.28]”, the assay [4, 18] was “[98.91]” and the “CL (appearance)” value [4, 19] was “A↓”. The assay [4, 19] was “[100.4]”, the “stability characteristics, in words” value [4] was “very good stability” and the “Unstressed (% Area)” value [4] was 99.41% Area. The “Bulk stability (XRPD)” value (Solid-state stability; 80° C.) was “Changed to mod. C”, the “Bulk stability (XRPD)” value (Solid-state stability; 80° C./75% r.h.) was “no change” and the assay (Solid-state stability; [20]) was “[97.76]”. For the same compound, the assay (Solid-state stability; [21]) was “[99.48]”, the assay (Solid-state stability; [22]) was “[98.61]” and the “CL (appearance)” value (Solid-state stability; [23]) was “B (B = slight discoloration)”. The assay (Solid-state stability; [23]) was “[99.39]”, the “% DS (drug substance)” value [5, 24] was 98.8 % area and the “% DS (drug substance)” value [5, 25] was 99.4 % area. The “% DS (drug substance)” value [5, 26] was 99.3 % area, the “% DS (drug substance)” value [5, 27] was 99.4 % area and the “% DS (drug substance)” value [5, 28] was 99.2 % area. For the same compound, the “% DS (drug substance)” value [5, 29] was 99.4 % area, the “% DS (drug substance)” value [5, 30] was 99.5 % area and the “% DS (drug substance)” value [5, 31] was 98.6 % area. For the same compound, the “% DS (drug substance)” value ([5]; Standard, freshly prepared) was 99.5 % area and the “stability with all excipient mixtures tested, in words” value [5] was “very good stability”.

From patent US20110112308A1 (NOVARTIS AG, priority 2006, published 2011)
